Results on 20 molecules are retold here after patent publication US6884796B2, “Meiosis regulating compounds” (NovoNordisk A/S, priority 1998, dated 2005).

Data set [1] relates to naked oocytes (NO). The data set is described as follows: Agonistic oocyte assay: germinal vesicle breakdown and polar body formation in naked oocytes cultured in Hx-medium. The format is cell-based, mice. Conditions: 10 mikroM; for mean % GVB / mean % PB: naked oocytes (NO) cultured in vitro for 24 hours in Hx-medium; for mean Relative Effect: naked oocytes (NO), 24 hours, indexed: control = 0, FF-MAS = 100. On the procedure:
An agonistic oocyte assay can be performed as follows:
Oocytes were obtained from immature female mice (C57BU6J x DBA/2J F1, Bomholtgaard, Denmark) weighing 13-16 grams, that were kept under controlled temperature (20-22° C.), light (lights on 06.00-18.00) and relative humidity (50-70%). The mice received an intra-peritoneal injection of 0.2 ml gonadotropins (Gonal-F, Serono) containing 20 IU FSH and 48 hours later the animals were killed by cervical dislocation.
The ovaries were dissected out and the oocytes were isolated in Hx-medium (see below) under a stereo microscope by manual rupture of the follicles using a pair of 27 gauge needles. Spherical oocytes displaying an intact germinal vesicle (hereinafter designated GV) were divided in cumulus enclosed oocytes (hereinafter designated CEO) and naked oocytes (hereinafter designated NO) and placed in a-minimum essential medium (α-MEM without ribonucleosides, Gibco BRL, Cat. No. 22561) supplemented with 3 mg/ml bovine serum albumin (BSA, Sigma Cat. No. A-7030), 5 mg/ml human serum albumin (HSA, Statens Seruminstitute, Denmark), 0.23 mM pyruvate (Sigma, Cat. No S-8636), 2 mM glutamine (Flow Cat. No. 16-801), 100 IU/ml penicillin and 100 μg/ml streptomycin (Flow, Cat No. 16-700). This medium was supplemented with 3 mM hypoxanthine (Sigma Cat. No. H-9377) and designated Hx-medium.
The oocytes were rinsed three times in Hx-medium and oocytes of uniform size were divided into groups of CEO and NO. CEO and NO were cultured in 4-well multidishes (Nunclon, Denmark) in which each well contained 0.4 ml of Hx-medium. One control well (i.e., 35-45 oocytes cultured in identical medium with no addition of test compound) was always cultured simultaneously with 3 test wells (35-45 oocytes per well supplemented with test compound).
The oocytes were cultured in a humidified atmosphere of 5% CO2 in air for 24 hours at 37° C. By the end of the culture period, the number of oocytes with germinal vesicle (hereinafter designated GV), germinal vesicle breakdown (hereinafter designated GVB) and polar bodies (hereinafter designated PB), respectively, were counted using a stereomicroscope (Wildt, Leica MZ 12). The percentage GVB, defined as percentage of oocytes undergoing GVB per total number of oocytes in that well, was calculated as: % GVB=(number of GVB+number of PB/total number oocytes)×100.
The % PB was defined as percentage of oocytes displaying one extruded polar body per total number of oocytes in that well.
The effect of the tested compounds has been indexed against control level and 4,4-dimethyl-5α-cholesta-8,14,24-trien-3β-ol (hereinafter designated FF-MAS) where controls and FF-MAS are indexed to an effect of 0 and 100, respectively. The relative effect of the tested compound is calculated as follows: Relative effect=((test GVB %−control GVB %)/(FF-MAS GVB %−control GVB %))×100. Results

In data set [2] the test system is naked oocytes (NO). The note with it: Byskov et al. Nature 374 (1995), 559-562; cited from earlier work.

Broadly, the melting point is the temperature of the solid-liquid transition. The molecule `C[C@H](CCC(=O)NC(C)(C)C)[C@H]1CC=C2C3=C(CC[C@@]21C)[C@@]1(C)CC[C@H](O)C(C)(C)[C@@H]1CC3` came in with a melting point of 171 to 176 °C.

As for `C=C(C)CCC[C@@H](C)[C@H]1CC=C2C3=C(CC[C@@]21C)[C@@]1(C)CC[C@H](O)C(C)(C)C1CC3` (stereo partly drawn) [Example 33, 4,4-Dimethylcholest-8,14,25-trien-3β-ol], in the data set on naked oocytes (NO) [1], the “mean % GVB” value is given as 70%, the “mean % PB” value is reported as 14.5% and the “mean Relative Effect” value came to 105.

`C[C@H](CCCOCc1ccccc1)[C@H]1CC=C2C3=C(CC[C@@]21C)[C@@]1(C)CC[C@H](O)C(C)(C)[C@@H]1CC3` came in with a melting point of 114 to 115 °C.

Turning to `Cc1ccc(C[C@@H](C)[C@H]2CC=C3C4=C(CC[C@@]32C)[C@@]2(C)CC[C@H](O)C(C)(C)[C@@H]2CC4)cc1` [Example 21, (20R)-4,4,20-Trimethyl-21-(4-methylphenyl)-5α-pregna-8,14-dien-3δ-ol], in the data set on naked oocytes (NO) [1], the “mean % GVB” value amounted to 82%, the “mean % PB” value is on record as 29.5% and the “mean Relative Effect” value was 98.

Turning to `C[C@H](CCC(=O)OCc1ccccc1)[C@H]1CC=C2C3=C(CC[C@@]21C)[C@@]1(C)CC[C@H](O)C(C)(C)[C@@H]1CC3`, the melting point is 118 to 119 °C.

Take `CC(=O)CC[C@@H](C)[C@H]1CC=C2C3=C(CC[C@@]21C)[C@@]1(C)CC[C@H](O)C(C)(C)[C@@H]1CC3`: the melting point fell in the range of 183 to 185 °C.

Molecule `C[C@H](CCC(=O)OC1CCCCC1)[C@H]1CC=C2C3=C(CC[C@@]21C)[C@@]1(C)CC[C@H](O)C(C)(C)[C@@H]1CC3` registered a melting point of 130 to 132 °C.

Regarding `COC(=O)CC[C@@H](C)[C@H]1CC=C2C3=C(CC[C@@]21C)[C@@]1(C)CC[C@H](O)C(C)(C)[C@@H]1CC3`, the melting point was in the range of 156 to 157 °C.

`C[C@H](CCCC(C(=O)O)C(=O)O)[C@H]1CC=C2C3=C(CC[C@@]21C)[C@@]1(C)CC[C@H](O)C(C)(C)[C@@H]1CC3` registered a melting point of 188 to 190 °C.

Consider `C[C@H](CCCNc1ccccc1)[C@H]1CC=C2C3=C(CC[C@@]21C)[C@@]1(C)CC[C@H](O)C(C)(C)[C@@H]1CC3`, for which the melting point was 178 to 180 °C.

With `C[C@H](CCC(=O)O)[C@H]1CC=C2C3=C(CC[C@@]21C)[C@@]1(C)CC[C@H](O)C(C)(C)[C@@H]1CC3` [Example 4, 3β-Hydroxy-4,4-dimethyl-5α-chola-8,14-dien-24-oic acid], in the data set on naked oocytes (NO) [1], the “mean % GVB” value was determined as 10.5%, the “mean % PB” value was found to be 3.5% and the “mean Relative Effect” value is −10.

`CC(=O)NCCC[C@@H](C)[C@H]1CC=C2C3=C(CC[C@@]21C)[C@@]1(C)CC[C@H](O)C(C)(C)[C@@H]1CC3`: the melting point lay in the range of 219 to 221 °C.

As for `C[C@H](CC1CCCCC1)[C@H]1CC=C2C3=C(CC[C@@]21C)[C@@]1(C)CC[C@H](O)C(C)(C)[C@@H]1CC3` [Example 23, (20R), 4,20-Trimethyl-21-(cyclohexyl)-5α-pregna-8,14-dien-3β-ol], in the data set on naked oocytes (NO) [1], the “mean % GVB” value was 73.5%, the “mean % PB” value worked out at 21.5% and the “mean Relative Effect” value came out at 98.

With `CC(C)=CCC[C@@H](C)[C@H]1CC=C2C3=C(CC[C@@]21C)[C@@]1(C)CC[C@H](O)C(C)(C)[C@@H]1CC3` [FF-MAS, 4,4-dimethyl-5α-cholesta-8,14,24-trien-3β-ol, reference compound], in the data set with naked oocytes (NO) [2], the “induction of meiosis in NO in vitro” value is recorded as “induce meiosis”. Besides, in the data set with naked oocytes (NO) [1], the “mean % GVB” value worked out at 86.1%, the “mean % PB” value was determined as 28.5% and the “mean Relative Effect” value is 100.

In turn, `C[C@H](CCC(=O)O)[C@H]1CC[C@H]2C3=CC=C4C(C)(C)[C@@H](O)CC[C@]4(C)[C@H]3CC[C@]12C` yielded a melting point of 210 to 213 °C.

As for `CCOC(=O)CC[C@@H](C)[C@H]1CC=C2C3=C(CC[C@@]21C)[C@@]1(C)CC[C@H](O)C(C)(C)[C@@H]1CC3`, the melting point was 122 to 124 °C.

On to `C[C@H](CCC(=O)Nc1ccccc1)[C@H]1CC=C2C3=C(CC[C@@]21C)[C@@]1(C)CC[C@H](O)C(C)(C)[C@@H]1CC3` [Example 10, 3β-Hydroxy-4,4-dimethyl-5α-chola-8,14-dien-24-oic acid-N-phenyl amide], for which, in the data set on naked oocytes (NO) [1], the “mean % GVB” value was 10%, the “mean % PB” value stood at 3% and the “mean Relative Effect” value is −10.

For the molecule `COC(=O)CC[C@@H](C)[C@H]1CC[C@H]2C3=CC=C4C(C)(C)[C@@H](O)CC[C@]4(C)[C@H]3CC[C@]12C`, the melting point is 124 to 128 °C.

Consider `CC(C)C(=O)CC[C@@H](C)[C@H]1CC=C2C3=C(CC[C@@]21C)[C@@]1(C)CC[C@H](O)C(C)(C)[C@@H]1CC3` [Example 6, 3β-Hydroxy4,4-dimethyl-5α-cholesta-8,14-dien-24-one], for which, in the data set with naked oocytes (NO) [1], the “mean % GVB” value came to 88%, the “mean % PB” value is given as 11% and the “mean Relative Effect” value is listed as 110.

`C[C@H](CCC(N)=O)[C@H]1CC=C2C3=C(CC[C@@]21C)[C@@]1(C)CC[C@H](O)C(C)(C)[C@@H]1CC3` yielded a melting point of 233 to 235 °C.
